From PubChem BioAssay (NCI)
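Dose response: 5 concentrations. Exposure: 48 h. Format: 96-well plates. Endpoint: linear interpolation; highest concentration if not reached. TGI marks complete inhibition of growth.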

Columns and labels:
Assay in all cases: inhibition of tumour cell growth, NCI panel, 48 h
[1] = system: MDA-N
[2] = system: SF-295 CNS
[3] = system: COLO 205 colon
[4] = system: 786-0 renal
[5] = system: A549 NSCLC
[6] = system: M14 melanoma
[7] = system: SF-268 CNS
[8] = system: NCI-H522 lung
[9] = system: RXF 393 renal
[10] = system: MOLT-4 leukemia
[11] = system: NCI-H226 lung
[12] = system: HS 578T breast
[13] = system: SK-OV-3 ovarian
[14] = system: TK-10 renal
[15] = system: UACC-62 melanoma

Structure (SMILES) | TGI [1] [µM] | TGI [2] [µM] | TGI [3] [µM] | TGI [4] [µM] | TGI [5] [µM] | TGI [6] [µM] | TGI [7] [µM] | TGI [8] [µM] | TGI [9] [µM] | TGI [10] [µM] | TGI [11] [µM] | TGI [12] [µM] | TGI [13] [µM] | TGI [14] [µM] | TGI [15] [µM]
COC(=O)C1=Cc2cc(OC)c(O)cc2[C@@H](c2ccc(O)c(OC)c2)[C@@H]1C(=O)OC | > 100 | > 100 | > 100 | > 100 | > 100 | > 100 | > 100 | > 100 | > 100 | > 100 | > 100 | > 100 |  |  | 
CCOC(=O)[C@@H]1ON2O[C@H](OC3CCCC3(c3ccccc3)c3ccccc3)C[C@H]3OC(=O)[C@@H]1C32 (stereo partly drawn) | > 100 | > 100 | > 100 | > 100 | 76.6 | > 100 | > 100 | > 100 | 36.5 | > 100 | > 100 | > 100 | > 100 | > 100 | > 100
O=c1[nH]nc(Cc2ccccc2)n1/N=C/c1ccccc1Cl | > 100 | > 100 | > 100 | > 100 | > 100 |  | > 100 | > 100 | 48.5 | > 100 | > 100 | > 100 | > 100 | > 100 | > 100
COc1cc(NP(=O)(Oc2ccccc2)Oc2ccccc2)ccc1Nc1c2ccccc2nc2c1[nH]c1ccccc12 | 15.4 | 13.1 | > 43 | 1.58 | 2.22 | 7.02 | > 100 | 7.32 | 14.1 | 0.204 | 20.2 | 98.1 | 20.9 | 12.3 | 8.58
[O-][n+]1onc(-c2ccccc2)c1CN1CCOCC1 | > 100 | > 100 | > 100 | > 100 | > 100 | > 100 | > 100 | > 100 | > 100 | 94.1 | > 100 | > 100 | > 100 | > 100 | > 100
CCCCC(=O)NC1(c2cc3ccccc3s2)CCCCC1 | > 100 | > 100 | > 100 | > 100 | > 100 | > 100 | > 100 | > 100 | > 100 |  | > 100 | > 100 | > 100 | > 100 | > 100
Cc1ccc(S(=O)(=O)NC2C(=O)c3ccccc3C(=O)C2n2cnc3ccccc32)cc1 (stereo not drawn) | 45.5 | > 100 | > 100 | > 100 | > 100 | > 100 | > 100 |  | 61.8 | 68.1 | > 100 | > 100 | > 100 | 49.6 | 74.4
O=C(O)c1ccc(Nc2nc3ccccc3nc2-c2cccs2)cc1 | > 100 | > 100 | > 100 | > 100 | > 100 |  | > 100 | > 100 | > 100 | > 100 | > 100 | > 100 | > 100 | > 100 | > 100
